Results taken from article PMC11432795, “Mutagenesis of the Peptide Inhibitor of ASIC3 Channel Introduces Binding to Thumb Domain of ASIC1a but Reduces Analgesic Activity” (Marine Drugs, 2024).
Positions of bridges follow the written chain, without caps; N, C: chain ends. Residues, ends and D or L forms follow the SMILES beside them.

Tests used:
rat ASIC3 channel = molecular target: T1, rat ASIC3 channel (Rattus norvegicus, UniProt O35240); test: Two-electrode voltage clamp, rat ASIC3 in X. laevis oocytes; type: cell-based; conditions: pH 5.5 stimulus, mean ± S.E.M., 5 cells; for nH: inhibition of rat ASIC3, conditioning pH 7.4; for IC50: rat ASIC3, X. laevis oocytes, TEVC, Vh −50 mV, conditioning pH 7.4, peptide 30 s before stimulus
T1 construct: expressed in transfected cells; host or cells: Xenopus laevis oocytes injected with mRNA made from pcDNA3.1-rat ASIC3
T1 sequence (O35240 1-533): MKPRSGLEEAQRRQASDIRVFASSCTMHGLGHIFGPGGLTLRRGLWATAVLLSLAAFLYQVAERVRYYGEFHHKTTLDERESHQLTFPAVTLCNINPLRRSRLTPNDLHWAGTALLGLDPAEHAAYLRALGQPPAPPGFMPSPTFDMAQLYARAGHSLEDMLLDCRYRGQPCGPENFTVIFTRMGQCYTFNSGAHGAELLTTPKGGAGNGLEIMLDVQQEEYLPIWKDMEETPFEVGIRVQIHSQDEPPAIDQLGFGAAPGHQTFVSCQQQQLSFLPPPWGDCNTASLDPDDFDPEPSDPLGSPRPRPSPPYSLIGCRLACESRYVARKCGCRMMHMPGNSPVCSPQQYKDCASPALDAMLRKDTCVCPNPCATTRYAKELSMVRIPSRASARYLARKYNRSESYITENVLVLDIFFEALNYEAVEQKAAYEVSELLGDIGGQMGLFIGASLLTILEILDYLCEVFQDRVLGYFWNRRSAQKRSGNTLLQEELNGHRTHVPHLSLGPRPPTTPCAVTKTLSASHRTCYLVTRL
Protocol: Figure 3 The effect of mutant peptides S16K and A23K on rat ASIC1a and ASIC3 channels. […] (B) Dose–response curves for the inhibitory effect of mutant peptides on ASIC1a. Each data point represents data from 5 cells. (C) Representative current traces of Ugr9-1, S16K, and A23K at a concentration of 12.5 µM on ASIC3. […] Each point represents data from 5 cells. The depicted currents were induced by a pH 5.5 stimulus following a conditioning pH of 7.4, with peptides applied for 30 s before the pH stimulus. The holding potential (Vh) was −50 mV, and the time interval between applications ranged from 1 to 2 min. Data are presented as mean ± S.E.M.
A small portion of the ovary was isolated from frogs under anesthesia induced by a 0.17% solution of procaine methanesulphonate (MS222) (Sigma), followed by treatment with collagenase (1 mg/mL) at room temperature for 2 h. Oocytes at stages IV and V, devoid of follicular membranes, were transferred to ND-96 medium (containing 96 mM NaCl, 5 mM HEPES, 2 mM KCl, 1.8 mM CaCl2, 1 mM MgCl2, pH 7.4). mRNA synthesis was performed from pcDNA3.1 vectors (Invitrogen, Carlsbad, CA, USA) containing the rat ASIC3 gene, as well as pCI vectors containing genes for rat ASIC1a, its mutant analogues, and ASIC1b. mRNA (2.5–10 ng) was then injected into the oocytes. For the ASIC1a/3 heteromeric channels, the mRNA encoding the ASIC1a and ASIC3 subunits were injected in a 1:5 ratio, respectively. Subsequently, the oocytes were incubated for 2–3 days at a temperature of 17–19 °C in ND96 medium supplemented with gentamicin and streptomycin (20 µg/mL each).
Whole-cell electrophysiological recordings of ASIC channels were conducted using a two-electrode voltage-clamp setup. Microelectrodes were filled with 3 M KCl. Recordings from oocytes were carried out at a holding potential of −50 mV, with data filtered at 10 Hz and sampled at a rate of 100 Hz using an L780M ADC (LCard, Moscow, Russia). The synchronized delivery of solutions into the chamber and recording of electrophysiological results were carried out using in-house software v.2. Activation of ASIC channels occurred through rapid pH changes in the solution, achieved by replacing the working solution in the chamber with ND96-based solutions at varying pH levels. Specifically, HEPES was substituted with 10 mM MES for pH 5.5–6.5 and MOPS for pH 6.7–7.0.
Fresh peptide solutions were meticulously prepared in ND96 buffer with a pH of 7.43 immediately before experiments, with strict control over the pH levels. Peptides were applied for 30 s at a conditioning pH of 7.43 before acid stimulation of the channel. The interval between applications was maintained at a minimum of 1.5 to 2 min.
Electrophysiological data analysis was conducted using OriginPro 2018 software (OriginLab, Northampton, MA, USA). Dose–response relationships for Ugr9a-1, S16K, and A23K peptides were fitted using a Hill function: F1(x) = A − A/(1 + (x/IC50)^nH), where F1(x) represents the amplitude of the current at concentration x of the peptide, A is the maximum amplitude of the current, IC50 is the half-maximum inhibitory concentration of the peptide, and nH is the Hill coefficient.

[1] = CFA-induced hyperalgesia, hot plate test; type: in vivo, ICR mice; conditions: hot plate 53 °C; for prolongation of paw withdrawal time, significance by dose: 0.002, 0.02, 0.2 mg/kg i.m.
Protocol: In the CFA-induced hyperalgesia test, where CFA administration induces excess sensitivity to mechanical and thermal stimuli, the analgesic effects of peptides were assessed using von Frey filaments of varying forces (von Frey test) and a hot plate apparatus (hot plate test).
Adult male ICR mice (Animal Breeding Facility Branch of Shemyakin–Ovchinnikov Institute of Bioorganic Chemistry, Russian Academy of Sciences, Pushchino, Russia), weighing 20–25 g, were utilized. Animals were housed under controlled conditions, with a room temperature of 23 ± 2 °C, a 12 h light–dark cycle, and ad libitum access to food and water. Test substances were dissolved in saline. Peptides (Ugr9-1 and A23K at doses of 0.002, 0.02, and 0.2 mg/kg) and saline (for the control group) were administered intramuscularly 60 min prior to testing.
The abdominal constriction test of visceral pain (acetic acid-induced writhing pain model) and hyperalgesia induced by complete Freund’s adjuvant (CFA-induced inflammatory pain model) were performed as previously described.
Statistical analysis was conducted using analysis of variance (ANOVA) with post hoc Tukey’s test, and data are presented as mean ± standard deviation (S.D.).

Which nH (rat ASIC3 channel) does the source give for `CC[C@H](C)[C@H](N)C(=O)N[C@@H](CO)C(=O)N[C@H](C(=O)N[C@@H](CC(=O)O)C(=O)N1CCC[C@H]1C(=O)N1CCC[C@H]1C(=O)N[C@H]1CSSC[C@@H]2NC(=O)[C@H](CC(N)=O)NC(=O)CNC(=O)[C@H](CO)NC(=O)CNC(=O)[C@H](CC(=O)O)NC(=O)[C@H](CCCNC(=N)N)NC(=O)[C@H](Cc3c[nH]cn3)NC(=O)[C@H](Cc3ccc(O)cc3)NC(=O)[C@H](CSSC[C@@H](C(=O)NCC(=O)N[C@@H](C)C(=O)N[C@H](C(=O)O)C(C)C)NC(=O)CNC(=O)[C@H](Cc3ccc(O)cc3)NC(=O)[C@H](CCCCN)NC(=O)[C@H](CC(=O)O)NC(=O)[C@H](Cc3ccc(O)cc3)NC(=O)[C@H](C(C)C)NC2=O)NC(=O)[C@H](Cc2ccccc2)NC(=O)[C@H](CCCNC(=N)N)NC1=O)[C@@H](C)CC` [A23K] (H-ISIDPPCRFCYHRDGSGNCVYDKYGCGAV-OH; disulfide 7-19, 10-26) here?
Its nH is 3.58 ± 0.08.

And the IC50 (rat ASIC3 channel)?
The IC50 was 9.39 µM.

And the “prolongation of paw withdrawal time, significance by dose” value ([1]; one hour before testing, n = 7)?
Its value is “effects only at doses of 0.02 and 0.2 mg/kg”.

And the “paw withdrawal time effect compared to Ugr9-1” value ([1]; versus Ugr9-1)?
The value was “two times less effective than Ugr9-1”.

Which nH (rat ASIC3 channel) does the source give for `CC[C@H](C)[C@H](N)C(=O)N[C@@H](CO)C(=O)N[C@H](C(=O)N[C@@H](CC(=O)O)C(=O)N1CCC[C@H]1C(=O)N1CCC[C@H]1C(=O)N[C@H]1CSSC[C@@H]2NC(=O)[C@H](CC(N)=O)NC(=O)CNC(=O)[C@H](CO)NC(=O)CNC(=O)[C@H](CC(=O)O)NC(=O)[C@H](CCCNC(=N)N)NC(=O)[C@H](Cc3c[nH]cn3)NC(=O)[C@H](Cc3ccc(O)cc3)NC(=O)[C@H](CSSC[C@@H](C(=O)NCC(=O)N[C@@H](C)C(=O)N[C@H](C(=O)O)C(C)C)NC(=O)CNC(=O)[C@H](Cc3ccc(O)cc3)NC(=O)[C@H](C)NC(=O)[C@H](CC(=O)O)NC(=O)[C@H](Cc3ccc(O)cc3)NC(=O)[C@H](C(C)C)NC2=O)NC(=O)[C@H](Cc2ccccc2)NC(=O)[C@H](CCCNC(=N)N)NC1=O)[C@@H](C)CC` [Ugr9-1] (H-ISIDPPCRFCYHRDGSGNCVYDAYGCGAV-OH; disulfide 7-19, 10-26) here?
Its nH is 2.33 ± 0.17.

What about the IC50 (rat ASIC3 channel) of the same compound?
Its IC50 is 14.2 ± 0.96 µM.

What about the “increase in paw withdrawal time (maximum effect)” value ([1]; 0.02 mg/kg i.m., one hour before testing, n = 7) of the same compound?
Its value is 106%.

What about the “prolongation of paw withdrawal time, significance by dose” value ([1]; one hour before testing, n = 7) of the same compound?
The value was “significantly prolonged paw withdrawal time at all doses”.
